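96-well plates; 48 h exposure; 5 concentrations. Endpoints by linear interpolation between flanking doses. Not reached: highest tested concentration assigned. Abbreviation: GI50, concentration required for 50% inhibition of growth. TGI is the concentration that stops growth completely.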
Assays:
Assay in all cases: growth of human tumour cells (NCI), 48 h
[1] = system: 786-0 renal
[2] = system: A498 renal
[3] = system: A549 NSCLC
[4] = system: ACHN renal
[5] = system: BT-549 breast
[6] = system: CAKI-1 renal
[7] = system: CCRF-CEM leukemia
[8] = system: COLO 205 colon
[9] = system: DU-145 prostate
[10] = system: EKVX NSCLC
[11] = system: HCC-2998 colon
[12] = system: HCT-116 colon
[13] = system: HCT-15 colon
[14] = system: HL-60(TB) leukemia
[15] = system: HOP-62 NSCLC
[16] = system: HOP-92 NSCLC
[17] = system: HS 578T breast
[18] = system: HT29 colon
[19] = system: IGROV1 ovarian
[20] = system: K-562 leukemia
[21] = system: KM12 colon
[22] = system: LOX IMVI melanoma
[23] = system: M14 melanoma
[24] = system: MALME-3M melanoma
[25] = system: MCF7 breast
[26] = system: MDA-MB-231 breast
[27] = system: MDA-MB-435
[28] = system: MOLT-4 leukemia
[29] = system: NCI-H226 lung
[30] = system: NCI-H23 lung
[31] = system: NCI-H460 lung
[32] = system: NCI-H522 lung
[33] = system: NCI/ADR-RES ovarian
[34] = system: OVCAR-4 ovarian
[35] = system: OVCAR-5 ovarian
[36] = system: OVCAR-8 ovarian
[37] = system: PC-3 prostate
[38] = system: RPMI-8226 leukemia
[39] = system: RXF 393 renal
[40] = system: SF-268 CNS
[41] = system: SF-295 CNS
[42] = system: SF-539 CNS
[43] = system: SK-MEL-2 melanoma
[44] = system: SK-MEL-28 melanoma
[45] = system: SK-MEL-5 melanoma
[46] = system: SK-OV-3 ovarian
[47] = system: SN12C renal
[48] = system: SNB-19 CNS
[49] = system: SNB-75 CNS
[50] = system: SR leukemia
[51] = system: SW-620 colon
[52] = system: T-47D breast
[53] = system: TK-10 renal
[54] = system: U251 CNS
[55] = system: UACC-257 melanoma
[56] = system: UACC-62 melanoma
[57] = system: UO-31 renal

CC[C@]12C=CCN3CC[C@]4(C(=C(C(=O)OC)C1)Nc1cc5c(cc14)[C@@H]1[C@H](O5)[C@@H](O)[C@@]4(CC)CC(C(=O)OC)=C5Nc6cc(O)ccc6[C@@]56CCN1C46)C32 (stereo partly specified)
GI50 [1]: 68.5 nM | TGI [1]: 4040 nM | GI50 [2]: 81.8 nM | TGI [2]: 407 nM | GI50 [3]: 259 nM | TGI [3]: 9990 nM | GI50 [4]: 153 nM | TGI [4]: 1100 nM | GI50 [5]: 168 nM | TGI [5]: 1300 nM | GI50 [6]: 39.8 nM | TGI [6]: 1590 nM | GI50 [7]: 94 nM | TGI [7]: > 50000 nM | GI50 [8]: 119 nM | TGI [8]: 619 nM | GI50 [9]: 707 nM | TGI [9]: > 26400 nM | GI50 [10]: 239 nM | TGI [10]: > 24500 nM | GI50 [11]: 75.2 nM | TGI [11]: 335 nM | GI50 [12]: 72.7 nM | TGI [12]: 597 nM | GI50 [13]: 92.7 nM | TGI [13]: 358 nM | GI50 [14]: 19.8 nM | TGI [14]: 2110 nM | GI50 [15]: 136 nM | TGI [15]: > 15300 nM | GI50 [16]: 15.7 nM | TGI [16]: 1050 nM | GI50 [17]: 172 nM | TGI [17]: > 50000 nM | GI50 [18]: 153 nM | TGI [18]: 1830 nM | GI50 [19]: 112 nM | GI50 [20]: 47.5 nM | TGI [20]: > 50000 nM | GI50 [21]: 256 nM | TGI [21]: 6990 nM | GI50 [22]: 59.7 nM | TGI [22]: 135 nM | GI50 [23]: 109 nM | TGI [23]: 9550 nM | GI50 [24]: 128 nM | TGI [24]: 9230 nM | GI50 [25]: 27 nM | TGI [25]: > 50000 nM | GI50 [26]: 94.3 nM | TGI [26]: 40200 nM | GI50 [27]: 106 nM | TGI [27]: 1520 nM | GI50 [28]: 134 nM | TGI [28]: > 50000 nM | GI50 [29]: 179 nM | GI50 [30]: 165 nM | TGI [30]: 1650 nM | GI50 [31]: 332 nM | TGI [31]: 8080 nM | GI50 [32]: 61.4 nM | TGI [32]: 324 nM | GI50 [33]: 293 nM | TGI [33]: > 50000 nM | GI50 [34]: 213 nM | TGI [34]: > 50000 nM | GI50 [35]: 262 nM | TGI [35]: > 22400 nM | GI50 [36]: 166 nM | TGI [36]: > 16000 nM | GI50 [37]: 128 nM | TGI [37]: 8000 nM | GI50 [38]: 79.8 nM | TGI [38]: 990 nM | GI50 [39]: 162 nM | TGI [39]: 977 nM | GI50 [40]: 352 nM | TGI [40]: > 20700 nM | GI50 [41]: 187 nM | TGI [41]: 9340 nM | GI50 [42]: 181 nM | TGI [42]: 8140 nM | GI50 [43]: 164 nM | TGI [43]: 1580 nM | GI50 [44]: 410 nM | TGI [44]: 18400 nM | GI50 [45]: 217 nM | TGI [45]: > 15300 nM | GI50 [46]: 172 nM | TGI [46]: 1060 nM | GI50 [47]: 185 nM | TGI [47]: > 9990 nM | GI50 [48]: 210 nM | TGI [48]: > 25600 nM | GI50 [49]: 369 nM | TGI [49]: > 50000 nM | GI50 [50]: 40.1 nM | TGI [50]: 4280 nM | GI50 [51]: 167 nM | TGI [51]: 2270 nM | GI50 [52]: 103 nM | GI50 [53]: 64.2 nM | TGI [53]: 645 nM | GI50 [54]: 195 nM | TGI [54]: 2580 nM | GI50 [55]: 122 nM | TGI [55]: > 21500 nM | GI50 [56]: 85.9 nM | TGI [56]: 40300 nM | GI50 [57]: 93.3 nM | TGI [57]: 3070 nM

From PubChem BioAssay (NCI)
